Like-named read-outs stand apart in the source and are kept apart here. Bridge positions count the residues as written; N and C are the ends. Square brackets hold non-standard residues; d marks the D form. Peptide text beside a SMILES is read from it. Dab = NCC[C@H](N)C(=O)O
Assays:
A. baumannii 92247 [1] = type: cell-based, Acinetobacter baumannii; conditions: 92247, 18 h
Method: (§1) For the preparation of the bacterial solution, overnight grown culture was diluted in 0.85% saline solution, adjusted to 0.5 McFarland turbidity and further diluted in Mueller–Hinton broth for inoculation to a final concentration of 5 × 10^5 colony forming units/mL (CFU/mL). The agents were serially diluted two-fold in a 96-well plate, and equal volumes of bacterial solution were subsequently added to the designated wells. The well consisting of bacterial solution served as the positive control, while the well containing only media served as the negative control. The plate was then incubated at 37 °C for 18 h. After incubation, an Emax Plus microplate reader (Molecular Devices, Union City, CA, USA) was used to measure the optical density (OD) at a wavelength of 590 nm to confirm the turbidity. The antibacterial activity corresponded to the MIC, which is defined as the lowest concentration of the agent necessary to inhibit visible bacterial growth.

A. baumannii ATCC 17978 = type: cell-based, Acinetobacter baumannii; conditions: ATCC 17978, 18 h
Method: as §1

A. baumannii LAC-4 = type: cell-based, Acinetobacter baumannii; conditions: LAC-4, 18 h
Method: as §1

P. aeruginosa 114228 = experiment: microbe, parasite or virus in culture; type: cell-based, Pseudomonas aeruginosa
How it was run: (§2)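 Antibiotic and guanidinylated polymyxin adjuvant were two-fold serially diluted across perpendicular axes, combined with bacterial suspension and incubated 18 h at 37 °C. Turbidity was read as OD590. FIC index is the sum of each agent's MIC in combination divided by its MIC alone: ≤0.5 synergy, 0.5–4 additivity, >4 antagonism.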

A. baumannii 110193 = experiment: microbe, parasite or virus in culture; type: cell-based, Acinetobacter baumannii
How it was run: as §2

A. baumannii 92247 [2] = experiment: microbe, parasite or virus in culture; type: cell-based, Acinetobacter baumannii
How it was run: as §2

A. baumannii AB027 = experiment: microbe, parasite or virus in culture; type: cell-based, Acinetobacter baumannii
How it was run: as §2

P. aeruginosa 101243 = experiment: Checkerboard assay; type: cell-based, Pseudomonas aeruginosa
Method: (§3) The adjuvant properties of the guanidinylated polymyxins were evaluated using the checkerboard assay as previously described. The bacterial solution was prepared as described in the antimicrobial susceptibility assay. The antibiotic of interest and the adjuvant were serially diluted two-fold along the x- and y-axis on a 96-well plate, respectively, resulting in varying concentrations of both agents in each well. Equal volumes of bacterial solution were added to the designated wells. The well consisting of bacterial solution served as the positive control, while the wells containing only media served as the negative control. The plate was then incubated at 37 °C for 18 h. After incubation, an Emax Plus microplate reader (Molecular Devices, Union City, CA, USA) was used to measure the OD at a wavelength of 590 nm to confirm the turbidity. The fractional inhibitory concentration (FIC) index was then determined to establish the relationship between the antibiotic and adjuvant. The FIC index corresponds to the sum of the FICs of the antibiotic and adjuvant. The FIC of each agent is calculated by dividing its MIC when it is used in combination by its MIC when used alone. FIC indices ≤0.5, 0.5 < x ≤ 4 and >4 indicate synergy, additivity and antagonism, respectively.

P. aeruginosa P259-96918 = experiment: Checkerboard assay; type: cell-based, Pseudomonas aeruginosa
Method: as §3

[3] = tested on: P. aeruginosa P262-101856; experiment: Checkerboard assay; type: cell-based, Pseudomonas aeruginosa
Method: as §3

[4] = tested on: P. aeruginosa P264-104354; experiment: Checkerboard assay; type: cell-based, Pseudomonas aeruginosa
Method: as §3

E. cloacae 121187 = experiment: microbe, parasite or virus in culture; type: cell-based, Enterobacter cloacae
Method: as §3

E. cloacae 118564 = experiment: Checkerboard assay; type: cell-based, Enterobacter cloacae
Method: as §3

K. pneumoniae 113250 = experiment: Checkerboard assay; type: cell-based, Klebsiella pneumoniae
Method: as §3

K. pneumoniae 113254 = experiment: Checkerboard assay; type: cell-based, Klebsiella pneumoniae
Method: as §3

P. aeruginosa PA 107092 = type: cell-based, Pseudomonas aeruginosa
Method: as §3

P. aeruginosa PA 109084 = type: cell-based, Pseudomonas aeruginosa
Method: as §3

P. aeruginosa PA 86052 = type: cell-based, Pseudomonas aeruginosa; conditions: PA 86052, 18 h
Method: as §3

P. aeruginosa PA 88949 = type: cell-based, Pseudomonas aeruginosa
Method: as §3

[5] = agent alone, one value per checkerboard plate
[6] = with 8 μM avibactam, adjuvant at 2 (PMBN, GCol), 1 (GPMB) μg/mL
[7] = adjuvant at 0.5 μg/mL as printed

CC(C)C[C@@H]1NC(=O)[C@@H](Cc2ccccc2)NC(=O)[C@H](CCN)NC(=O)[C@@H](NC(=O)[C@H](CCN)NC(=O)[C@@H](N)[C@@H](C)O)CCNC(=O)[C@H]([C@@H](C)O)NC(=O)[C@H](CCN)NC(=O)[C@H](CCN)NC1=O [PMBN, polymyxin B nonapeptide] (H-T[Dab][Dab][Dab][dF]L[Dab][Dab]T; lactam 3-C (inferred); N-terminus assumed)
MIC (A. baumannii 92247 [1]): >256 mg/L | MIC (A. baumannii ATCC 17978): >256 mg/L | MIC (A. baumannii LAC-4): >256 mg/L | MIC alone (P. aeruginosa 114228; 114228, 18 h): 256 mg/L | Fold-potentiation of aztreonam (P. aeruginosa 114228; with 8 μg/mL adjuvant): 1 | Fold-potentiation of ceftazidime (P. aeruginosa 114228; with 8 μg/mL adjuvant): 8 | Fold-potentiation of erythromycin (P. aeruginosa 114228; with 8 μg/mL adjuvant): 1 | Fold-potentiation of rifampicin (P. aeruginosa 114228; with 8 μg/mL adjuvant): 8 | MIC alone (A. baumannii 110193; 110193, 18 h): 256 mg/L | MIC alone (A. baumannii 110193; [5]): > 256 mg/L | Fold-potentiation of ceftazidime (A. baumannii 110193; with 1 μg/mL adjuvant): 1 | Fold-potentiation of erythromycin (A. baumannii 110193; with 1 μg/mL adjuvant): 4 | Fold-potentiation of rifampicin (A. baumannii 110193; with 1 μg/mL adjuvant): 32 | MIC alone (A. baumannii 92247 [2]; 92247, 18 h): 256 mg/L | Fold potentiation of aztreonam (A. baumannii 92247 [2]; with 8 μg/mL adjuvant): 1 | Fold-potentiation of ceftazidime (A. baumannii 92247 [2]; with 8 μg/mL adjuvant): 1 | Fold-potentiation of erythromycin (A. baumannii 92247 [2]; with 8 μg/mL adjuvant): 1 | Fold-potentiation of rifampicin (A. baumannii 92247 [2]; with 8 μg/mL adjuvant): 32 | MIC alone (A. baumannii AB027; AB027, 18 h): 256 mg/L | MIC alone (A. baumannii AB027; [5]): > 256 mg/L | Fold potentiation of aztreonam (A. baumannii AB027; with 8 μg/mL adjuvant): 2 | Fold-potentiation of ceftazidime (A. baumannii AB027; with 8 μg/mL adjuvant): 2 | Fold-potentiation of erythromycin (A. baumannii AB027; with 8 μg/mL adjuvant): 16 | Fold-potentiation of rifampicin (A. baumannii AB027; with 8 μg/mL adjuvant): 64 | MIC alone (P. aeruginosa 101243; [5]): > 256 mg/L | Fold-potentiation of aztreonam (P. aeruginosa 101243; with 8 μg/mL adjuvant): 2 | Fold-potentiation of ceftazidime (P. aeruginosa 101243; with 8 μg/mL adjuvant): 8 | Fold-potentiation of erythromycin (P. aeruginosa 101243; with 8 μg/mL adjuvant): 1 | Fold-potentiation of rifampicin (P. aeruginosa 101243; with 8 μg/mL adjuvant): 8 | MIC alone (P. aeruginosa P259-96918; [5]): > 256 mg/L | Fold-potentiation of aztreonam (P. aeruginosa P259-96918; with 4 μg/mL adjuvant): 8 | Fold-potentiation of ceftazidime (P. aeruginosa P259-96918; with 4 μg/mL adjuvant): 4 | Fold-potentiation of erythromycin (P. aeruginosa P259-96918; with 4 μg/mL adjuvant): 8 | Fold-potentiation of rifampicin (P. aeruginosa P259-96918; with 4 μg/mL adjuvant): 128 | MIC alone [3, 5]: > 256 mg/L | Fold-potentiation of aztreonam ([3]; with 8 μg/mL adjuvant): 8 | Fold-potentiation of ceftazidime ([3]; with 8 μg/mL adjuvant): 4 | Fold-potentiation of erythromycin ([3]; with 8 μg/mL adjuvant): 16 | Fold-potentiation of rifampicin ([3]; with 8 μg/mL adjuvant): 16 | MIC alone [4, 5]: > 256 mg/L | Fold-potentiation of aztreonam ([4]; with 2 μg/mL adjuvant): 2 | Fold-potentiation of ceftazidime ([4]; with 2 μg/mL adjuvant): 1 | Fold-potentiation of erythromycin ([4]; with 2 μg/mL adjuvant): 1 | Fold-potentiation of rifampicin ([4]; with 2 μg/mL adjuvant): 64 | MIC alone (E. cloacae 121187; 121187, 18 h): 256 mg/L | MIC alone (E. cloacae 121187; [5]): > 256 mg/L | Fold-potentiation of erythromycin (E. cloacae 121187; with 8 μg/mL adjuvant): 1 | Fold-potentiation of rifampicin (E. cloacae 121187; with 8 μg/mL adjuvant): 1 | MIC alone (E. cloacae 118564; [5]): > 256 mg/L | Fold-potentiation of erythromycin (E. cloacae 118564; with 8 μg/mL adjuvant): 4 | Fold-potentiation of rifampicin (E. cloacae 118564; with 8 μg/mL adjuvant): 8 | MIC alone (K. pneumoniae 113250; [5]): > 256 mg/L | Fold-potentiation of erythromycin (K. pneumoniae 113250; with 8 μg/mL adjuvant): 8 | Fold-potentiation of rifampicin (K. pneumoniae 113250; with 8 μg/mL adjuvant): 8 | MIC alone (K. pneumoniae 113254; [5]): > 256 mg/L | Fold-potentiation of erythromycin (K. pneumoniae 113254; with 8 μg/mL adjuvant): 4 | Fold-potentiation of rifampicin (K. pneumoniae 113254; with 8 μg/mL adjuvant): 4 | MIC adjuvant alone (P. aeruginosa PA 107092; PA 107092, 18 h): 56 µM | Fold potentiation of aztreonam (P. aeruginosa PA 107092; adjuvant at 2 μg/mL as printed): 4 | Fold potentiation of ceftazidime (P. aeruginosa PA 107092; adjuvant at 2 (PMBN, GCol), 1 (GPMB) μg/mL): 8 | Fold potentiation of aztreonam (P. aeruginosa PA 107092; [6]): 4 | Fold potentiation of ceftazidime (P. aeruginosa PA 107092; [6]): 8 | MIC adjuvant alone (P. aeruginosa PA 109084; PA 109084, 18 h): 56 µM | Fold potentiation of ceftazidime (P. aeruginosa PA 109084; adjuvant at 1 μg/mL as printed): 16 | Fold potentiation of aztreonam (P. aeruginosa PA 109084; adjuvant at 1 (PMBN, GCol), 0.5 (GPMB) μg/mL as printed): 16 | Fold potentiation of ceftazidime (P. aeruginosa PA 109084; with 8 μM avibactam, adjuvant at 2 μg/mL as printed): 4 | Fold potentiation of aztreonam (P. aeruginosa PA 109084; with 8 μM avibactam, adjuvant at 2 (PMBN), 0.5 (GCol, GPMB) μg/mL as printed): 16 | MIC adjuvant alone (P. aeruginosa PA 86052): 16 µM | MIC adjuvant alone (P. aeruginosa PA 88949; PA 88949, 18 h): 16 µM | Fold potentiation of aztreonam (P. aeruginosa PA 88949; [7]): 1 | Fold potentiation of ceftazidime (P. aeruginosa PA 88949; [7]): 1

— paper PMC9598282 (Antibiotics, 2022)
